# Results as given in US20170355705A1 (GlaxoSmithKline Intellectual Property (No.2) Limited, priority 2014, published 2017).
# Molecular target: T1, SIRT1 (Homo sapiens, UniProt Q96EB6)
# T1 sequence (Q96EB6 1-747): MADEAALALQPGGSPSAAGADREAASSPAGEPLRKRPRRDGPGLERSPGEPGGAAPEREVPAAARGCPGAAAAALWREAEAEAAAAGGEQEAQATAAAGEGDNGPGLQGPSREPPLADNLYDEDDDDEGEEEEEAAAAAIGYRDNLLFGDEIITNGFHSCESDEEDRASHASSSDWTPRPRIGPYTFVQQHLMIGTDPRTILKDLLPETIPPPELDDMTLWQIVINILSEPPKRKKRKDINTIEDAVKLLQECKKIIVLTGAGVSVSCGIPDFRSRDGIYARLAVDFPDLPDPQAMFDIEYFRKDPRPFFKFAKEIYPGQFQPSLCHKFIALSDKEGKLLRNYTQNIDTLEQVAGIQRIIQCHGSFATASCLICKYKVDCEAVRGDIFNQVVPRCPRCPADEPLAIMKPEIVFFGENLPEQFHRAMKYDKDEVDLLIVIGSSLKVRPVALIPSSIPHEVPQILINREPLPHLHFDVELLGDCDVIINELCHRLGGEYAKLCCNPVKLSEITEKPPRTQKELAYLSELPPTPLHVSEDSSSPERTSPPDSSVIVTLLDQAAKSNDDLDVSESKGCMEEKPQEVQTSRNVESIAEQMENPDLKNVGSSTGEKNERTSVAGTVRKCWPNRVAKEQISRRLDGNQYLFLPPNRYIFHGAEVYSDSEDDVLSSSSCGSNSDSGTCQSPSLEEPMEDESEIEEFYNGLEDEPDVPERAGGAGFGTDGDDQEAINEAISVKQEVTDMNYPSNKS
# Assay: Trp mass spectrometry assay of SIRT1 activity (EC1.5, percent maximum activation)
# Assay type: biochemical
# Conditions: Trp mass spectrometry assay; for TRP Activity (EC1.5): EC1.5 = concentration giving 150% activation of SIRT1; for TRP MAX RESP (percent maximum fold activation): percent maximum activation of SIRT1
# In short: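 Mass spectrometry read-out (OAADPR formed, or deacetylated Trp peptide) after a 25 min NAD-dependent deacetylation by E. coli-expressed His-SIRT1, stopped with formic acid.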
smiles,measurement,value
"Cc1cc(-c2nc3c(cc2Cl)N2CC[C@@H](C2)N3C(=O)Nc2cc(OC[C@H](O)CO)ccn2)ccn1 [Example 38, (4S)-8-chloro-N-(4-((R)-2,3-dihydroxypropoxy)pyridin-2-yl)-7-(2-methylpyridin-4-yl)-3,4-dihydro-1,4-methanopyrido[2,3-b][1,4]diazepine-5(2H)-carboxamide]",TRP Activity (EC1.5),B (EC1.5 1-25 μM)
same,TRP MAX RESP (percent maximum fold activation),A (Fold activation ≧150%)
"Cc1cc(-c2nc3c(cc2Cl)N2CC[C@@H](C2)N3C(=O)Nc2ccnc(OC[C@H](O)CO)c2)ccn1 [Example 39, (4S)-8-chloro-N-(2-((R)-2,3-dihydroxypropoxy)pyridin-4-yl)-7-(2-methylpyridin-4-yl)-3,4-dihydro-1,4-methanopyrido[2,3-b][1,4]diazepine-5(2H)-carboxamide]",TRP Activity (EC1.5),B (EC1.5 1-25 μM)
same,TRP MAX RESP (percent maximum fold activation),A (Fold activation ≧150%)
"Cc1cc(-c2nc3c(cc2Cl)N2CC[C@@H](C2)N3C(=O)Nc2cnc(OC[C@@H](O)CO)cn2)ccn1 [Example 40, (4S)-8-chloro-N-(5-((S)-2,3-dihydroxypropoxy)pyrazin-2-yl)-7-(2-methylpyridin-4-yl)-3,4-dihydro-1,4-methanopyrido[2,3-b][1,4]diazepine-5(2H)-carboxamide]",TRP Activity (EC1.5),B (EC1.5 1-25 μM)
same,TRP MAX RESP (percent maximum fold activation),A (Fold activation ≧150%)
"Cc1cc(-c2nc3c(cc2Cl)N2CC[C@@H](C2)N3C(=O)Nc2cccc(OC[C@H](O)CO)n2)ccn1 [Example 41, (4S)-8-chloro-N-(6-((R)-2,3-dihydroxypropoxy)pyridin-2-yl)-7-(2-methylpyridin-4-yl)-3,4-dihydro-1,4-methanopyrido[2,3-b][1,4]diazepine-5(2H)-carboxamide]",TRP Activity (EC1.5),B (EC1.5 1-25 μM)
same,TRP MAX RESP (percent maximum fold activation),A (Fold activation ≧150%)
"O=C(Nc1ccnc(OCCCO)n1)N1c2nc(-c3cccc(C(F)(F)F)c3)c(Cl)cc2N2CC[C@H]1C2 [Example 42, (4S)-8-chloro-N-(2-(3-hydroxypropoxy)pyrimidin-4-yl)-7-(3-(trifluoromethyl)phenyl)-3,4-dihydro-1,4-methanopyrido[2,3-b][1,4]diazepine-5(2H)-carboxamide]",TRP Activity (EC1.5),A (EC1.5<1 μM)
same,TRP MAX RESP (percent maximum fold activation),A (Fold activation ≧150%)
"CC(C)(CO)COc1cncc(NC(=O)N2c3nc(-c4cccc(C(F)(F)F)c4)c(Cl)cc3N3CC[C@H]2C3)n1 [Example 43, (4S)-8-chloro-N-(6-(3-hydroxy-2,2-dimethylpropoxy)pyrazin-2-yl)-7-(3-(trifluoromethyl)phenyl)-3,4-dihydro-1,4-methanopyrido[2,3-b][1,4]diazepine-5(2H)-carboxamide]",TRP Activity (EC1.5),B (EC1.5 1-25 μM)
same,TRP MAX RESP (percent maximum fold activation),A (Fold activation ≧150%)
"Cc1cc(-c2nc3c(cc2Cl)N2CC[C@@H](C2)N3C(=O)Nc2cc(OC[C@@H](O)CO)ncn2)ccn1 [Example 44, (4S)-8-chloro-N-(6-((S)-2,3-dihydroxypropoxy)pyrimidin-4-yl)-7-(2-methylpyridin-4-yl)-3,4-dihydro-1,4-methanopyrido[2,3-b][1,4]diazepine-5(2H)-carboxamide]",TRP Activity (EC1.5),C (EC1.5>25 μM)
same,TRP MAX RESP (percent maximum fold activation),B (Fold Activation <150%)
"O=C(Nc1cncc(OC[C@@H](O)CO)n1)N1c2nc(-c3cccc(C(F)(F)F)c3)c(Cl)cc2N2CC[C@H]1C2 [Example 45, (4S)-8-chloro-N-(6-((S)-2,3-dihydroxypropoxy)pyrazin-2-yl)-7-(3-(trifluoromethyl)phenyl)-3,4-dihydro-1,4-methanopyrido[2,3-b][1,4]diazepine-5(2H)-carboxamide]",TRP Activity (EC1.5),A (EC1.5<1 μM)
same,TRP MAX RESP (percent maximum fold activation),A (Fold activation ≧150%)
"O=C(Nc1nccc(OC[C@H](O)CO)n1)N1c2nc(-c3cccc(C(F)(F)F)c3)c(Cl)cc2N2CC[C@H]1C2 [Example 46, (4S)-8-chloro-N-(4-((R)-2,3-dihydroxypropoxy)pyrimidin-2-yl)-7-(3-(trifluoromethyl)phenyl)-3,4-dihydro-1,4-methanopyrido[2,3-b][1,4]diazepine-5(2H)-carboxamide]",TRP Activity (EC1.5),A (EC1.5<1 μM)
same,TRP MAX RESP (percent maximum fold activation),A (Fold activation ≧150%)
"Cc1cc(-c2nc3c(cc2Cl)N2CC[C@@H](C2)N3C(=O)Nc2cc(F)cc(-c3cccnc3)c2)ccn1 [Example 47, (4S)-8-chloro-N-(3-fluoro-5-(pyridin-3-yl)phenyl)-7-(2-methylpyridin-4-yl)-3,4-dihydro-1,4-methanopyrido[2,3-b][1,4]diazepine-5(2H)-carboxamide]",TRP Activity (EC1.5),B (EC1.5 1-25 μM)
same,TRP MAX RESP (percent maximum fold activation),A (Fold activation ≧150%)
"CC(C)(O)CCOc1nccc(NC(=O)N2c3nc(-c4cccc(C(F)(F)F)c4)c(Cl)cc3N3CC[C@H]2C3)n1 [Example 48, (4S)-8-chloro-N-(2-(3-hydroxy-3-methylbutoxy)pyrimidin-4-yl)-7-(3-(trifluoromethyl)phenyl)-3,4-dihydro-1,4-methanopyrido[2,3-b][1,4]diazepine-5(2H)-carboxamide]",TRP Activity (EC1.5),B (EC1.5 1-25 μM)
same,TRP MAX RESP (percent maximum fold activation),A (Fold activation ≧150%)
"CC(C)(CO)COc1cccc(NC(=O)N2c3nc(-c4cccc(C(F)(F)F)c4)c(Cl)cc3N3CC[C@H]2C3)n1 [Example 49, (4S)-8-chloro-N-(6-(3-hydroxy-2,2-dimethylpropoxy)pyridin-2-yl)-7-(3-(trifluoromethyl)phenyl)-3,4-dihydro-1,4-methanopyrido[2,3-b][1,4]diazepine-5(2H)-carboxamide]",TRP Activity (EC1.5),B (EC1.5 1-25 μM)
same,TRP MAX RESP (percent maximum fold activation),A (Fold activation ≧150%)
"O=C(Nc1ccnc(OC[C@H](O)CO)n1)N1c2nc(-c3cccc(C(F)(F)F)c3)c(Cl)cc2N2CC[C@H]1C2 [Example 50, (4S)-8-chloro-N-(2-((R)-2,3-dihydroxypropoxy)pyrimidin-4-yl)-7-(3-(trifluoromethyl)phenyl)-3,4-dihydro-1,4-methanopyrido[2,3-b][1,4]diazepine-5(2H)-carboxamide]",TRP Activity (EC1.5),A (EC1.5<1 μM)
same,TRP MAX RESP (percent maximum fold activation),A (Fold activation ≧150%)
"Cl.O=C(Nc1ccnc(OC[C@H](O)CO)n1)N1c2nc(-c3cccc(C(F)(F)F)c3)c(Cl)cc2N2CC[C@H]1C2 [Example 51, (4S)-8-chloro-N-(2-((R)-2,3-dihydroxypropoxy)pyrimidin-4-yl)-7-(3-(trifluoromethyl)phenyl)-3,4-dihydro-1,4-methanopyrido[2,3-b][1,4]diazepine-5(2H)-carboxamide Hydrochloride]",TRP Activity (EC1.5),A (EC1.5<1 μM)
same,TRP MAX RESP (percent maximum fold activation),A (Fold activation ≧150%)
"O=C(NC1CC1)N1c2nc(-c3cccc(C(F)(F)F)c3)c(Cl)cc2N2CC[C@H]1C2 [Example 52, (4S)-8-chloro-N-cyclopropyl-7-(3-(trifluoromethyl)phenyl)-3,4-dihydro-1,4-methanopyrido[2,3-b][1,4]diazepine-5(2H)-carboxamide]",TRP Activity (EC1.5),A (EC1.5<1 μM)
same,TRP MAX RESP (percent maximum fold activation),A (Fold activation ≧150%)
"Cl.O=C(NC1CC1)N1c2nc(-c3cccc(C(F)(F)F)c3)c(Cl)cc2N2CC[C@H]1C2 [Example 53, (4S)-8-chloro-N-cyclopropyl-7-(3-(trifluoromethyl)phenyl)-3,4-dihydro-1,4-methanopyrido[2,3-b][1,4]diazepine-5(2H)-carboxamide Hydrochloride]",TRP Activity (EC1.5),A (EC1.5<1 μM)
same,TRP MAX RESP (percent maximum fold activation),A (Fold activation ≧150%)
"O=C(Nc1ccnc(OC2CCOCC2)n1)N1c2nc(-c3cccc(C(F)(F)F)c3)c(Cl)cc2N2CC[C@H]1C2 [Example 55, (4S)-8-chloro-N-(2-((tetrahydro-2H-pyran-4-yl)oxy)pyrimidin-4-yl)-7-(3-(trifluoromethyl)phenyl)-3,4-dihydro-1,4-methanopyrido[2,3-b][1,4]diazepine-5(2H)-carboxamide]",TRP Activity (EC1.5),B (EC1.5 1-25 μM)
same,TRP MAX RESP (percent maximum fold activation),A (Fold activation ≧150%)
